ChEMBL document CHEMBL3301361, “Experimental in vitro DMPK and physicochemical data on a set of publicly disclosed compounds”
In brackets after ≈: the same amount, converted by molar mass.

Tests used:
physchem [1] = settings: octan-1-ol/water
physchem [2] = settings: pH 7.4 buffer
in vitro [3] = settings: human, hepatocytes
in vitro [4] = settings: human, plasma
in vitro [5] = settings: SD, HW or BN, rat, plasma
in vitro [6] = settings: human

| SMILES | logD (physchem [1]; pH 7.4, LogD7.4) | solubility thermodynamic (physchem [2]) | hepatocyte CLint (in vitro [3]) | other results |
| --- | --- | --- | --- | --- |
| COCCOc1nc(N)c2[nH]c(=O)n(Cc3cccc(CC(=O)OC)c3)c2n1 | 1.86 | 21.9 µM (≈ 8.48 µg/mL) | 125 µL/min/1e6 cells |  |
| CNc1ncnc2c(CNc3cc(NC(=O)c4ccc5c(c4)OCCO5)ccc3C)cccc12 | 4 | 9.3 µM (≈ 4.24 µg/mL) | 41.7 µL/min/1e6 cells |  |
| Cc1ccc(-n2c(C)cc(/C=C3\SC(=O)NC3=O)c2C)cc1 |  |  | 17.8 µL/min/1e6 cells | fraction unbound at 5 h (in vitro [4]; PPB): 0.0016 |
| N=c1c(S(=O)(=O)c2ccc(Cl)cc2)cc2c(=O)n3ccccc3nc2n1C1CCCC1 |  |  | 35.5 µL/min/1e6 cells | fraction unbound at 5 h (in vitro [4]; PPB): 0.5 |
| Nc1nc(-c2ccc(Cl)c(Cl)c2)c(-c2ccncc2)s1 |  |  | 19.1 µL/min/1e6 cells | fraction unbound at 5 h (in vitro [4]; PPB): 0.0074 |
| O=C(CN1CCOCC1)Nc1ccc(-c2cccc3c(=O)cc(N4CCOCC4)oc23)cc1O | 2.4 | 7.2 µM (≈ 3.35 µg/mL) | 18.6 µL/min/1e6 cells |  |
| CCOc1cc(-c2cccc3c(=O)cc(N4CCOCC4)oc23)ccc1NC(=O)CN1CCOCC1 | 2.8 | 1.4 µM (≈ 0.691 µg/mL) | 51.3 µL/min/1e6 cells |  |
| CC(C)Oc1cc(-c2cccc3c(=O)cc(N4CCOCC4)oc23)ccc1NC(=O)CN1CCOCC1 | 3 | 4 µM (≈ 2.03 µg/mL) | 87.1 µL/min/1e6 cells |  |
| CC(C)COc1cc(-c2cccc3c(=O)cc(N4CCOCC4)oc23)ccc1NC(=O)CN1CCOCC1 | 3.8 | 3.5 µM (≈ 1.83 µg/mL) | > 150 µL/min/1e6 cells |  |
| C=CCOc1cc(-c2cccc3c(=O)cc(N4CCOCC4)oc23)ccc1NC(=O)CN1CCOCC1 | 3 | 4.7 µM (≈ 2.38 µg/mL) | 83.2 µL/min/1e6 cells |  |
| C[C@@H]1CN(C(=O)N[C@H](Cc2ccc(F)cc2)C(=O)N2CCC(C(=O)NC(C)(C)C)(C3CCCCC3)CC2)C[C@H](C)N1 |  |  | 10.7 µL/min/1e6 cells | fraction unbound at 5 h (in vitro [5]): 0.0872 |
| COc1cc(C2CCN(C(C)=O)CC2)ccc1Nc1ncc(Cl)c(-c2cnc3ccccn23)n1 |  | 2.2 µM (≈ 1.05 µg/mL) | 24 µL/min/1e6 cells |  |
| COc1cc(C(CO)CO)ccc1Nc1ncc(Cl)c(-c2cnc3ccccn23)n1 | 3.1 | 6.8 µM (≈ 2.9 µg/mL) | 19.9 µL/min/1e6 cells |  |
| COc1cc(N2CC3CNCC(C2)O3)ccc1Nc1ncc(Cl)c(-c2cnc3ccccn23)n1 |  | 25.1 µM (≈ 12 µg/mL) | 13.8 µL/min/1e6 cells |  |
| Cc1ccc2c(c1)c(Sc1ccc(S(C)(=O)=O)cc1)c(C)n2CC(=O)O | -0.08 |  | < 3 µL/min/1e6 cells | fraction unbound at 5 h (in vitro [4]; PPB): 0.0081; microsomal CLint (in vitro [6]; liver microsomes): < 3 µL/min/mg |
| Cc1c(Oc2ccc(Cl)cc2)c2c(NS(C)(=O)=O)cccc2n1CC(=O)O | -0.98 |  | < 3 µL/min/1e6 cells | fraction unbound at 5 h (in vitro [4]; PPB): 0.0374; microsomal CLint (in vitro [6]; microsomes): < 3 µL/min/mg |
| CC(C)(C)S(=O)(=O)N[C@H]1CC[C@H](C(=O)Nc2ccc(C(F)(F)F)cn2)CC1 |  |  | 5.75 µL/min/1e6 cells | fraction unbound at 5 h (in vitro [4]; PPB): 0.0409 |
| CCN(C(=O)c1ccc(-c2ccc(Cl)cc2)o1)c1ccc(N2CCNCC2)cc1 | 3.3 |  | < 3 µL/min/1e6 cells |  |
| NC(=O)c1ccn2c(-c3ccccc3)c(-c3ccc(C4(N)CCC4)cc3)nc2c1 |  | 112 µM (≈ 42.9 µg/mL) | 3.72 µL/min/1e6 cells |  |
| CC1CNC(Nc2c(Cl)cccc2Cl)=N1 (stereo not given) |  |  | < 3 µL/min/1e6 cells | fraction unbound at 5 h (in vitro [5]): 0.64 |
| O=S(=O)(Nc1ccc2sc(CO)nc2c1)c1ccc(Br)cc1 |  |  | 24.6 µL/min/1e6 cells | fraction unbound at 5 h (in vitro [5]): 0.0018 |
| O=S(=O)(Nc1ccc(C(F)(F)F)cc1)c1ccc2sc(CO)nc2c1 |  |  | 15.5 µL/min/1e6 cells | fraction unbound at 5 h (in vitro [4]; PPB): 0.0027 |
| N#Cc1cccc(-c2cccc(C(=O)O)c2)c1 | 0.3 |  | 8.13 µL/min/1e6 cells |  |
| O=C(NCc1ccc(OC(F)(F)F)cc1)C1c2ccccc2C(=O)N1CC1CC(F)(F)C1 (stereo not given) | 3.9 |  | 10 µL/min/1e6 cells |  |
| Nc1ncc(-c2ccc(S(=O)(=O)N3CCCC3)cc2)nc1C(=O)Nc1cccnc1 |  |  | < 3 µL/min/1e6 cells |  |

| SMILES | logD (physchem [1]; pH 7.4, LogD7.4) | solubility thermodynamic (physchem [2]) | hepatocyte CLint (in vitro [3]) | other results |
| --- | --- | --- | --- | --- |
| CS(=O)(=O)C1(c2cc(N3CCOCC3)nc(-c3cccc4[nH]ncc34)n2)CC1 |  |  | < 3 µL/min/1e6 cells |  |
| C[C@H]1COCCN1c1nc(N2CCOC[C@@H]2C)c2ccc(-c3cccc(C(=O)NCCO)c3)nc2n1 | 2.49 |  | 10 µL/min/1e6 cells |  |
| CC(C)C[C@H](CO)Nc1nc(SCc2ccccc2)nc2[nH]c(=O)sc12 | 4.2 |  | 13.5 µL/min/1e6 cells |  |
| CC(C)C[C@H](CO)Nc1nc(SCc2ccccc2)nc2nc(N)sc12 | 4.2 |  | 20.4 µL/min/1e6 cells |  |
| CC[C@H](CO)Nc1nc(SCc2cccc(F)c2F)nc2nc(N)sc12 |  |  | 5.16 µL/min/1e6 cells | fraction unbound at 5 h (in vitro [4]; PPB): 0.0149; microsomal CLint (in vitro [6]; liver microsomes): 62 µL/min/mg |
| CC(C)(CO)Nc1nc(SCc2cccc(F)c2F)nc2nc(N)sc12 | 3.37 |  | 5.88 µL/min/1e6 cells |  |
| CNC(=O)c1ccccc1Nc1nc(Nc2ccc(N3CCOCC3)cc2OC)ncc1Cl |  | 0.4 µM (≈ 0.188 µg/mL) | 16.2 µL/min/1e6 cells |  |
| C[C@]12CC[C@H](O)CC1=CC[C@@H]1[C@@H]2CC[C@]2(C)C(c3cccnc3)=CC[C@@H]12 [ABIRATERONE] |  |  | 55 µL/min/1e6 cells |  |
| Cc1c(N(C)C)c(=O)n(-c2ccccc2)n1C [AMINOPYRINE] |  |  | 3.47 µL/min/1e6 cells |  |
| O=C1CN=C(c2ccccc2Cl)c2cc([N+](=O)[O-])ccc2N1 [CLONAZEPAM] |  | 240 µM (≈ 75.7 µg/mL) | 3.72 µL/min/1e6 cells | logD (physchem [1]; pH 7.4): 3.72 |
| N=C(N)N1CCc2ccccc2C1 [DEBRISOQUIN] | -1.01 |  | 3.98 µL/min/1e6 cells |  |
| CCC1(C2=NCCN2)Cc2ccccc2O1 (stereo not given) [EFAROXAN] |  |  | < 3 µL/min/1e6 cells | fraction unbound at 5 h (in vitro [5]): 0.76 |
| O=C1Nc2ccc(Cl)cc2[C@@](C#CC2CC2)(C(F)(F)F)O1 [EFAVIRENZ] |  |  | 8.51 µL/min/1e6 cells |  |
| Cn1cc(C2=C(c3cn(C4CCN(Cc5ccccn5)CC4)c4ccccc34)C(=O)NC2=O)c2ccccc21 [ENZASTAURIN] |  | 0.8 µM (≈ 0.412 µg/mL) | 6 µL/min/1e6 cells | fraction unbound at 5 h (in vitro [4]): 0.0017 |
| CCOc1ccc2nc3ccc(=O)cc-3oc2c1 [ETHOXYRESORUFIN] |  |  | > 150 µL/min/1e6 cells |  |
| CCC1=C(C)CN(C(=O)NCCc2ccc(S(=O)(=O)NC(=O)N[C@H]3CC[C@H](C)CC3)cc2)C1=O [GLIMEPIRIDE] | 1.73 |  | 23.2 µL/min/1e6 cells |  |
| N#Cc1ccc(C(c2ccc(C#N)cc2)n2cncn2)cc1 [LETROZOLE] | 1.7 |  | < 3 µL/min/1e6 cells | fraction unbound at 5 h (in vitro [4]; PPB): 0.483 |
| CC#C[C@]1(O)CC[C@H]2[C@@H]3CCC4=CC(=O)CCC4=C3[C@@H](c3ccc(N(C)C)cc3)C[C@@]21C [MIFEPRISTONE] |  | 1.9 µM (≈ 0.816 µg/mL) | 26.9 µL/min/1e6 cells | fraction unbound at 5 h (in vitro [4]; PPB): 0.0015; microsomal CLint (in vitro [6]; liver microsomes): 79 µL/min/mg |
| CC(C)c1cc(C(=O)N2Cc3ccc(CN4CCN(C)CC4)cc3C2)c(O)cc1O [ONALESPIB] | 2.5 | 93.3 µM (≈ 38.2 µg/mL) | 23.4 µL/min/1e6 cells |  |
| CCCN1CCCC[C@H]1C(=O)Nc1c(C)cccc1C [ROPIVACAINE] |  |  | 15.5 µL/min/1e6 cells | fraction unbound at 5 h (in vitro [5]): 0.511 |
| C[C@]12CC[C@H]3[C@@H](CCC4=CC(=O)CC[C@@]43C)[C@@H]1CC[C@@H]2O [TESTOSTERONE] |  |  | > 150 µL/min/1e6 cells |  |
| O=c1ccc2ccc(O)cc2o1 [UMBELLIFERONE] |  |  | 123 µL/min/1e6 cells |  |
| CCCS(=O)(=O)Nc1ccc(F)c(C(=O)c2c[nH]c3ncc(-c4ccc(Cl)cc4)cc23)c1F [VEMURAFENIB] |  |  | 6.61 µL/min/1e6 cells |  |
| CC(c1cc2ccccc2s1)N(O)C(N)=O (stereo not given) [ZILEUTON] | 2.05 | 436 µM (≈ 103 µg/mL) | 7.76 µL/min/1e6 cells |  |
| Cc1cc(CC(=O)O)n(C)c1C(=O)c1ccc(Cl)cc1 [ZOMEPIRAC] |  |  | < 3 µL/min/1e6 cells |  |
